Assay results taken from US20060052312A1, “Paclitaxel hybrid derivatives” (priority 2003, published 2006).

Experiments:
[1] = Stability of PAC esters in aqueous media at pH 7.4 and 37° C.; format: physicochemical; details: read-out: T½ (apparent half-life in aqueous media) (converted)
[2] = system: MCF7 human breast cancer cell; test: Inhibition of MCF7 human breast cancer cell growth (non-MDR cell line); format: cell-based; details: read-out: Potency (dose that inhibits MCF7 human breast cancer cell growth by 50%)
[3] = system: MDR over non-MDR human breast cancer cell lines; test: MDR liability: growth inhibition in MDR over non-MDR human breast cancer cell lines; format: cell-based

half-life [1]: 11.6 days
IC50 [2]: 6.9 nM
Structure (SMILES): CC(=O)O[C@H]1C(=O)[C@@]2(C)[C@H]([C@H](OC(=O)c3ccccc3)[C@]3(O)C[C@H](OC(=O)[C@H](O)[C@@H](NC(=O)c4ccccc4)c4ccccc4)C(C)=C1C3(C)C)[C@]1(OC(C)=O)CO[C@@H]1C[C@@H]2O [PAC, Paclitaxel]
MDR liability [3]: about 1000 fold
MDR Liability (ratio of doses inhibiting growth by 50% in MDR over non-MDR human breast cancer cell lines) ([3]; MDR over non-MDR human breast cancer cell lines): 1041
